Results published in ChEMBL document CHEMBL5233281, “Design, synthesis and biological evaluation of novel 1,3,4,9-tetrahydropyrano[3,4-b]indoles as potential treatment of triple negative breast cancer by suppressing PI3K/AKT/mTOR pathway” (Bioorg Med Chem, 2021).

Legend:
[1] = Antiproliferative activity against human MCF-10A cells assessed as inhibition of cell growth incubated for 72 hrs by CCK8 assay; assay type: toxicity, cell-based
[2] = tested on: BGC-823; assay: Antiproliferative activity against human BGC-823 cells assessed as inhibition of cell growth incubated for 72 hrs by CCK8 assay; assay type: functional, cell-based; details: BGC-823, 72 h
[3] = tested on: A549; assay: Antiproliferative activity against human A549 cells assessed as inhibition of cell growth incubated for 72 hrs by CCK8 assay; assay type: functional, cell-based; details: A549, 72 h
[4] = tested on: MCF7; assay: Antiproliferative activity against human MCF7 cells assessed as inhibition of cell growth incubated for 72 hrs by CCK8 assay; assay type: functional, cell-based; details: MCF7, 72 h
[5] = tested on: MDA-MB-231; assay: Antiproliferative activity against human MDA-MB-231 cells assessed as inhibition of cell growth incubated for 72 hrs by CCK8 assay; assay type: functional, cell-based; details: MDA-MB-231, 72 h
[6] = tested on: PC-3; assay: Antiproliferative activity against human PC-3 cells assessed as inhibition of cell growth incubated for 72 hrs by CCK8 assay; assay type: functional, cell-based; details: PC-3, 72 h
[7] = Selectivity index, ratio of IC50 for antiproliferative activity against human MCF-10A cells to IC50 for antiproliferative activity against human MDA-MB-231 cells; assay type: toxicity, cell-based; details: MCF-10A cells and MDA-MB-231 cells, read-out: Ratio IC50
[8] = tested on: MDA-MB-231; assay: Antiproliferative activity against human MDA-MB-231 cells assessed as inhibition of cell growth incubated for 72 hrs by SRB assay; assay type: functional, cell-based; details: MDA-MB-231, 72 h

Compound | IC50 at 72 h [1] [µM] | IC50 [2] [µM] | IC50 [3] [µM] | IC50 [4] [µM] | IC50 [5] [µM] | IC50 [6] [µM] | selectivity ratio [7] | IC50 [8] [µM]
COc1ccc(C2OCCc3c2[nH]c2ccccc32)cc1OC (stereo unspecified) | 40.4 | > 20 | > 20 | > 20 | 17.8 | 18.1 | 2.27 | –
C[C@@H](Nc1cc(F)cc(F)c1)c1cc(C(=O)N(C)C)cc2c(=O)cc(N3CCOCC3)oc12 [AZD-8186] | – | – | – | – | – | – | – | 6.99
c1ccc(C2OCCc3c2[nH]c2ccccc32)cc1 (stereo unspecified) | – | > 20 | > 20 | > 20 | > 20 | > 20 | – | –
CC(=O)Oc1ccc(C2OCCc3c2[nH]c2ccccc32)cc1 (stereo unspecified) | – | > 20 | > 20 | 19.4 | > 20 | > 20 | – | –
Cc1ccc(C2OCCc3c2[nH]c2ccccc32)cc1 (stereo unspecified) | – | > 20 | > 20 | > 20 | > 20 | 18.2 | – | –
Fc1ccc(C2OCCc3c2[nH]c2ccccc32)cc1 (stereo unspecified) | 32 | 14.7 | 19.4 | 7.05 | 6.8 | 6.21 | 6.8 | –
COc1ccc2cc(C3OCCc4c3n(Cc3ccccc3)c3ccccc43)ccc2c1 (stereo unspecified) | 41.4 | 19.7 | 19.9 | 16.5 | 15.8 | 14.8 | 2.63 | –
COc1ccc2cc(C3OCCc4c3[nH]c3ccccc43)ccc2c1 (stereo unspecified) | 21.9 | 13.2 | 15.4 | 12.2 | 4.59 | 12.6 | 4.77 | –
Cc1cccc(C2OCCc3c2[nH]c2ccccc32)c1 (stereo unspecified) | – | > 20 | > 20 | > 20 | > 20 | > 20 | – | –
COc1ccc(C2OCCc3c2[nH]c2ccccc32)c(OC)c1OC (stereo unspecified) | – | > 20 | > 20 | > 20 | > 20 | 19.7 | – | –
COc1cccc(C2OCCc3c2[nH]c2ccccc32)c1 (stereo unspecified) | 40.8 | > 20 | > 20 | 18 | 15.3 | > 20 | 2.67 | –
COc1ccccc1C1OCCc2c1[nH]c1ccccc21 (stereo unspecified) | – | > 20 | > 20 | > 20 | > 20 | > 20 | – | –
COc1cc(C2OCCc3c2[nH]c2ccccc32)cc(OC)c1OC (stereo unspecified) | 46.2 | 18.3 | 19 | 18.5 | 13.5 | 13.9 | – | –
c1ccc2cc(C3OCCc4c3[nH]c3ccccc43)ccc2c1 (stereo unspecified) | – | 17.8 | > 20 | > 20 | > 20 | > 20 | – | –
COc1ccc2cc(C3OCCc4c3n(C)c3ccccc43)ccc2c1 (stereo unspecified) | 30 | 18.1 | 17.5 | 12.7 | 11.6 | 16.7 | 3.35 | –
COc1ccc(C2OCCc3c2[nH]c2ccc(OC)cc32)cc1 (stereo unspecified) | 51.9 | > 20 | > 20 | > 20 | 16.9 | > 20 | 3.07 | –
Clc1ccc(C2OCCc3c2[nH]c2ccccc32)cc1 (stereo unspecified) | 35.4 | 12.3 | 17.6 | 15.8 | 13.1 | 12.8 | – | –
COc1ccc(C2OCCc3c2[nH]c2ccc(Br)cc32)cc1 (stereo unspecified) | 45.1 | > 20 | > 20 | > 20 | 16.5 | > 20 | 2.42 | –
c1ccc(-c2ccc(C3OCCc4c3[nH]c3ccccc43)cc2)cc1 (stereo unspecified) | – | > 20 | > 20 | > 20 | > 20 | > 20 | – | –
COc1ccc(C2OCCc3c2[nH]c2ccccc32)cc1 (stereo unspecified) | 35.9 | 15.6 | 18.9 | 16.6 | 10.8 | 17.8 | 3.32 | –
